Source: patent US20260258035A1, “FIVE-MEMBERED AND SIX-MEMBERED NITROGEN-CONTAINING COMPOUND, AND INTERMEDIATE, PREPARATION METHOD AND USE THEREOF” (HANGZHOU SYNRX THERAPEUTICS BIOMEDICAL TECHNOLOGY CO., LTD., priority 2022, published 2026)

What was measured:
PARG = PARG (Homo sapiens, UniProt Q86W56); assay: Biochemical assay (PARG, TFMU-ADPr substrate); conditions: PARG, TFMU-ADPr substrate
HCC1806 = assay: Cell viability assay (CellTiter-Glo); assay type: cell-based, Human; conditions: Homo sapiens, HCC1806, 168 h, HCC1806, 7 days, CellTiter-Glo; read-out: IC50 (nM) in cell viability assay

Sequence of PARG (Q86W56 whole entry): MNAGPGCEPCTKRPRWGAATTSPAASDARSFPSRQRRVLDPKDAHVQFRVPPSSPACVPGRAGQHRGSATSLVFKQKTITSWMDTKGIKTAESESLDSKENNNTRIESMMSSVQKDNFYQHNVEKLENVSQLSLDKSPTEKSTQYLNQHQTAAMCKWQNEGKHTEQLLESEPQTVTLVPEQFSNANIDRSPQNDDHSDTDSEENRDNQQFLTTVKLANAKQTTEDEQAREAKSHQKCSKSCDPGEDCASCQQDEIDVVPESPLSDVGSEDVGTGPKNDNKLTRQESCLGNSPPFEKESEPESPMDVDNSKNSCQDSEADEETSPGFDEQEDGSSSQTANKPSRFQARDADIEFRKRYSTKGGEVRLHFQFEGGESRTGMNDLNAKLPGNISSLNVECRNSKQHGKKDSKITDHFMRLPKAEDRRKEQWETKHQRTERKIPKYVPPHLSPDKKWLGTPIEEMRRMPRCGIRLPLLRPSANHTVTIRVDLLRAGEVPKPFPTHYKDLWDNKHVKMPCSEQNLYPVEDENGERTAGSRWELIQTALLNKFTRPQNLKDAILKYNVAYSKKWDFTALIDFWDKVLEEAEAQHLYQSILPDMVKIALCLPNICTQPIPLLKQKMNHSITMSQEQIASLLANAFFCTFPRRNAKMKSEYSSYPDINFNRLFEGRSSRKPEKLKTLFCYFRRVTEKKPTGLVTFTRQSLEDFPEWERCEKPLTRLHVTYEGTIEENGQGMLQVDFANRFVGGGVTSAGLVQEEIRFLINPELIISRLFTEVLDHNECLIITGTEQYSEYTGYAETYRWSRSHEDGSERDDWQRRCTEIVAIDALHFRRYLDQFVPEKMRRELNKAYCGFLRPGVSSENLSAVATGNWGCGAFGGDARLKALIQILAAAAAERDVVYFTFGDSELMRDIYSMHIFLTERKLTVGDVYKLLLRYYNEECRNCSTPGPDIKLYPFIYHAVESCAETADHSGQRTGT

N#CC1(NS(=O)(=O)c2cc(N3CCN(C(=O)C4(O)CC4)CC3)c3cnc(-c4nnc(C(F)(F)F)s4)n3c2)CC1 [Example 237, N-(1-cyanocyclopropyl)-8-(4-(1-hydroxycyclopropane-1-carbonyl)piperazin-1-yl)-3-(5-(trifluoromethyl)-1,3,4-thiadiazol-2-yl)imidazo[1,5-a]pyridine-6-sulfonamide]
IC50 (PARG): 2.88 nM
IC50 (HCC1806): 4390 nM

CN(C)C(=O)N1CCN(c2cc(S(=O)(=O)NC3(C)COC3)cn3c(-c4nnc(C(F)F)s4)nc(Cl)c23)CC1 [Example 128, 4-(1-chloro-3-(5-(difluoromethyl)-1,3,4-thiadiazol-2-yl)-6-(N-(3-methyloxetan-3-yl)sulfamoyl)imidazo[1,5-a]pyridin-8-yl)-N,N-dimethylpiperazine-1-carboxamide]
IC50 (PARG): 0.99 nM
IC50 (HCC1806): 28 nM

COC(C)(C)C(=O)N1CCN(c2cc(S(=O)(=O)NC3(C#N)CC3)cn3c(-c4nnc(C(F)(F)F)s4)ncc23)CC1 [Example 296, N-(1-cyanocyclopropyl)-8-(4-(2-methoxy-2-methylpropanoyl)piperazin-1-yl)-3-(5-(trifluoromethyl)-1,3,4-thiadiazol-2-yl)imidazo[1,5-a]pyridine-6-sulfonamide]
IC50 (PARG): 3.02 nM
IC50 (HCC1806): 38.7 nM

N#CC1(NS(=O)(=O)c2cc(N3CCN(C(=O)C4CC4(F)F)CC3)c3cnc(-c4nnc(C(F)(F)F)s4)n3c2)CC1 (stereo not drawn) [Example 240, N-(1-cyanocyclopropyl)-8-(4-(2,2-difluorocyclopropane-1-carbonyl)piperazin-1-yl)-3-(5-(trifluoromethyl)-1,3,4-thiadiazol-2-yl)imidazo[1,5-a]pyridine-6-sulfonamide]
IC50 (PARG): 13.2 nM
IC50 (HCC1806): 2440 nM

CC1(NS(=O)(=O)c2cc(N3CCN(C(=O)C4CCO4)CC3)c3cnc(-c4nnc(C(F)(F)F)s4)n3c2)CC1 (stereo not drawn) [Example 304, N-(1-methylcyclopropyl)-8-(4-(oxetane-2-carbonyl)piperazin-1-yl)-3-(5-(trifluoromethyl)-1,3,4-thiadiazol-2-yl)imidazo[1,5-a]pyridine-6-sulfonamide]
IC50 (PARG): 3.86 nM
IC50 (HCC1806): 70 nM

CN(C)C1(C(=O)N2CCN(c3cc(S(=O)(=O)NC4(C#N)CC4)cn4c(-c5nnc(C(F)(F)F)s5)ncc34)CC2)CC1 [Example 266, N-(1-cyanocyclopropyl)-8-(4-(1-(dimethylamino)cyclopropane-1-carbonyl)piperazin-1-yl)-3-(5-(trifluoromethyl)-1,3,4-thiadiazol-2-yl)imidazo[1,5-a]pyridine-6-sulfonamide]
IC50 (PARG): 132 nM
IC50 (HCC1806): 370 nM

COCC1CN(c2cc(S(=O)(=O)NC3(CF)COC3)cn3c(-c4nnc(C(F)F)s4)ncc23)CCN1 (stereo not drawn) [Example 356, 3-(5-(difluoromethyl)-1,3,4-thiadiazol-2-yl)-N-(3-(fluoromethyl)oxetan-3-yl)-8-(3-(methoxymethyl)piperazin-1-yl)imidazo[1,5-a]pyridine-6-sulfonamide]
IC50 (PARG): 6.31 nM
IC50 (HCC1806): 305 nM

N#CC1(NS(=O)(=O)c2cc(N3CCN(C(=O)[C@@H]4C[C@@H](O)CN4)CC3)c3cnc(-c4nnc(C(F)(F)F)s4)n3c2)CC1 [Example 279, N-(1-cyanocyclopropyl)-8-(4-((2S,4R)-4-hydroxypyrrolidine-2-carbonyl)piperazin-1-yl)-3-(5-(trifluoromethyl)-1,3,4-thiadiazol-2-yl)imidazo[1,5-a]pyridine-6-sulfonamide]
IC50 (PARG): 95.5 nM
IC50 (HCC1806): 29900 nM

CC1(NS(=O)(=O)c2cc(N3CCN(C(=O)[C@H]4CC(F)(F)CN4)CC3)c3cnc(-c4nnc(C(F)(F)F)s4)n3c2)CC1 [Example 352, (R)-8-(4-(4,4-difluoropyrrolidine-2-carbonyl)piperazin-1-yl)-N-(1-methylcyclopropyl)-3-(5-(trifluoromethyl)-1,3,4-thiadiazol-2-yl)imidazo[1,5-a]pyridine-6-sulfonamide]
IC50 (PARG): 15.3 nM
IC50 (HCC1806): 561 nM
